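Five concentrations, 48 hours, 96-well plates. At the GI50, growth is halved. TGI marks complete inhibition of growth.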
How the values were obtained:
Assay in all cases: DTP human tumour cell line panel, 48 h
CCRF-CEM leukemia = system: CCRF-CEM leukemia
MOLT-4 leukemia = system: MOLT-4 leukemia
OVCAR-5 ovarian = system: OVCAR-5 ovarian
SF-268 CNS = system: SF-268 CNS
NCI-H23 lung = system: NCI-H23 lung
NCI-H522 lung = system: NCI-H522 lung
A549 NSCLC = system: A549 NSCLC
DU-145 prostate = system: DU-145 prostate
HCC-2998 colon = system: HCC-2998 colon
RXF 393 renal = system: RXF 393 renal

## Cc1[nH]c(-c2cc(N)ccc2Cl)c2c1C(=O)CCCC2
CCRF-CEM leukemia
  GI50: 1060 nM
  TGI: > 100000 nM
MOLT-4 leukemia
  GI50: 8320 nM
  TGI: > 100000 nM
OVCAR-5 ovarian
  GI50: 6540 nM
  TGI: > 100000 nM
SF-268 CNS
  GI50: 7990 nM
  TGI: > 100000 nM
NCI-H23 lung
  GI50: 5060 nM
  TGI: 64600 nM
NCI-H522 lung
  GI50: 1130 nM
  TGI: 15200 nM
A549 NSCLC
  GI50: 7910 nM
  TGI: > 100000 nM
DU-145 prostate
  GI50: 13100 nM
  TGI: > 100000 nM
HCC-2998 colon
  GI50: 3390 nM
  TGI: 16500 nM
RXF 393 renal
  GI50: 2060 nM
  TGI: 6060 nM

## O=C(O)c1ccccc1NC(=S)c1ccccc1
CCRF-CEM leukemia
  TGI: > 100000 nM
MOLT-4 leukemia
  TGI: > 100000 nM
OVCAR-5 ovarian
  TGI: > 100000 nM
SF-268 CNS
  TGI: > 100000 nM
NCI-H23 lung
  TGI: > 100000 nM
NCI-H522 lung
  TGI: 39800 nM
A549 NSCLC
  TGI: > 100000 nM
DU-145 prostate
  TGI: > 100000 nM
HCC-2998 colon
  TGI: 15.9 nM
RXF 393 renal
  TGI: > 100000 nM

## CCN1C(=O)N(CC)C2C1NN=c1s/c(=C\c3ccc(F)cc3)c(=O)n12 (stereo not given)
CCRF-CEM leukemia
  GI50: 265 nM
  TGI: > 100000 nM
MOLT-4 leukemia
  GI50: 418 nM
  TGI: > 100000 nM
OVCAR-5 ovarian
  GI50: 473 nM
  TGI: > 100000 nM
SF-268 CNS
  GI50: 807 nM
  TGI: > 100000 nM
NCI-H23 lung
  GI50: 547 nM
  TGI: > 100000 nM
NCI-H522 lung
  GI50: 93.1 nM
  TGI: 903 nM
A549 NSCLC
  GI50: 347 nM
  TGI: > 100000 nM
DU-145 prostate
  GI50: 300 nM
  TGI: > 37800 nM
HCC-2998 colon
  GI50: 319 nM
  TGI: > 100000 nM
RXF 393 renal
  GI50: 162 nM
  TGI: 622 nM

## CC1C=CC(OC(=O)C(C)(O)CCC(O)(C(=O)OC2CC(O)C(C(C)C)CC2(C)O)C(C)C)(C(C)C)CC1 (stereo not given)
CCRF-CEM leukemia
  GI50: 244 nM
  TGI: 901 nM
MOLT-4 leukemia
  GI50: 193 nM
  TGI: 861 nM
OVCAR-5 ovarian
  GI50: 665 nM
  TGI: 1350 nM
SF-268 CNS
  GI50: 645 nM
  TGI: 1640 nM
NCI-H23 lung
  GI50: 591 nM
  TGI: 1330 nM
NCI-H522 lung
  GI50: 576 nM
  TGI: 1360 nM
A549 NSCLC
  GI50: 567 nM
  TGI: 1390 nM
DU-145 prostate
  GI50: 272 nM
  TGI: 608 nM
HCC-2998 colon
  GI50: 2700 nM
  TGI: 8910 nM
RXF 393 renal
  GI50: 570 nM
  TGI: 1350 nM

## COC(=O)c1cc(-c2ccc(OC)c(OC)c2)[nH]c1N/N=C/c1c(Cl)cccc1Cl
CCRF-CEM leukemia
  GI50: 406 nM
  TGI: > 100000 nM
MOLT-4 leukemia
  GI50: 680 nM
  TGI: > 100000 nM
OVCAR-5 ovarian
  GI50: 1910 nM
  TGI: 7420 nM
SF-268 CNS
  GI50: 705 nM
  TGI: 6270 nM
NCI-H23 lung
  GI50: 848 nM
  TGI: 13000 nM
NCI-H522 lung
  GI50: 502 nM
  TGI: 2510 nM
A549 NSCLC
  GI50: 948 nM
  TGI: 8280 nM
DU-145 prostate
  GI50: 448 nM
  TGI: 1930 nM
HCC-2998 colon
  GI50: 265 nM
  TGI: 1430 nM
RXF 393 renal
  GI50: 132 nM
  TGI: 933 nM

## COc1cc(C(=O)Nc2cc(O)c(CC=C(C)C)c(O)c2)cc2c1O[C@]1(C)CC[C@@H](O)C(C)(C)[C@H]1C2
CCRF-CEM leukemia
  GI50: 96.2 nM
  TGI: > 100000 nM
MOLT-4 leukemia
  GI50: 64.1 nM
  TGI: 1380 nM
OVCAR-5 ovarian
  GI50: 3440 nM
  TGI: 37000 nM
SF-268 CNS
  GI50: 1790 nM
  TGI: 39300 nM
NCI-H23 lung
  GI50: 5420 nM
  TGI: 35900 nM
NCI-H522 lung
  GI50: 1920 nM
  TGI: 14600 nM
A549 NSCLC
  GI50: 1050 nM
  TGI: 24600 nM
DU-145 prostate
  GI50: 1870 nM
  TGI: 21700 nM
HCC-2998 colon
  GI50: 3130 nM
  TGI: 13800 nM
RXF 393 renal
  GI50: 34.5 nM
  TGI: 2890 nM

Reference: PubChem BioAssay (NCI)
